Assay results: PubChem BioAssay (NCI)
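Cultured in 96-well plates, cells were exposed to test compound for 48 hours across five concentrations. TGI marks complete inhibition of growth.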

Key:
Assay in all cases: growth of human tumour cells (NCI), 48 h
MALME-3M melanoma = test system: MALME-3M melanoma
SK-MEL-5 melanoma = test system: SK-MEL-5 melanoma
CCRF-CEM leukemia = test system: CCRF-CEM leukemia
UACC-62 melanoma = test system: UACC-62 melanoma
NCI-H226 lung = test system: NCI-H226 lung
KM20L2 colon = test system: KM20L2 colon
IGROV1 ovarian = test system: IGROV1 ovarian
DLD-1 colon = test system: DLD-1 colon
RPMI-8226 leukemia = test system: RPMI-8226 leukemia
UACC-257 melanoma = test system: UACC-257 melanoma

SMILES | TGI (MALME-3M melanoma) [µM] | TGI (SK-MEL-5 melanoma) [µM] | TGI (CCRF-CEM leukemia) [µM] | TGI (UACC-62 melanoma) [µM] | TGI (NCI-H226 lung) [µM] | TGI (KM20L2 colon) [µM] | TGI (IGROV1 ovarian) [µM] | TGI (DLD-1 colon) [µM] | TGI (RPMI-8226 leukemia) [µM] | TGI (UACC-257 melanoma) [µM]
Cc1ccc(NCC2(/N=C/c3ccccc3)OC(CO)C(O)C2O)cc1 (stereo unspecified) | > 100 | > 100 | 99.2 | > 100 | > 100 | 49.4 | > 100 | > 100 | > 100 | > 100
O=C1C2CCN(CC2)C1CN1CCOCC1 (stereo unspecified) | 3.28 | 31 | > 23.8 | 30.9 | 26.5 | 37 | 38.4 | 3.18 | 13.7 | 10.2
CN(C)CCNc1ccc2ncn3c4ccc(O)cc4c(=O)c1c23 | 14.4 | 8.52 | 15.3 | 15.9 | 3.47 | 12.9 | 8.87 | 16.1 | 13.1 | 19.7
CCCCN(CC)C(=O)C(=O)Cc1nc2ccc(C(=O)c3ccccc3)cc2[nH]c1=O | – | > 100 | > 31.6 | > 100 | > 100 | > 100 | > 100 | > 100 | > 31.6 | > 100
CC(Oc1ccc2c(-c3ccc(Cl)cc3)cc(=O)oc2c1)C(=O)O (stereo unspecified) | > 100 | > 100 | > 100 | > 100 | > 100 | > 100 | > 100 | > 100 | – | > 100
O=S1(=O)c2ccccc2N(O)C2=NCCN21 | > 100 | > 100 | > 100 | > 100 | > 100 | > 100 | > 100 | > 100 | > 100 | > 100
COC(=O)CCC(=O)Nc1ccc(Cl)cc1C | > 100 | > 100 | > 100 | > 100 | > 100 | > 100 | > 100 | > 100 | > 100 | > 100
CCCCCCCCCCCCSC(=S)c1c(C)[nH]n(-c2ccccc2)c1=O | 39.8 | 15.9 | 23.2 | 25.9 | > 50 | 39.5 | > 50 | > 50 | > 50 | 29.5
CC(C)(C)C(=O)N1C(C(=O)O)Cc2ccccc2[C@@H]1Cc1ccccc1 (stereo partly specified) | > 100 | > 100 | > 100 | > 100 | > 100 | > 100 | > 100 | – | > 100 | > 100
COc1ccc(N2C(=O)C3CC(c4ccc(Br)cc4)c4c([nH]c5ccccc45)C3C2=O)cc1 (stereo unspecified) | 36.7 | 35.5 | > 100 | 32.3 | 77.2 | 27.3 | 26.2 | 23.4 | > 100 | 36.8
c1ccc(SC(Sc2ccccc2)=C2CCC2)cc1 | – | > 100 | > 100 | > 100 | – | > 100 | – | > 100 | > 100 | > 100
CCOC(=O)C12CCCC1(O)N(NC(=O)OC)C(C)=C2C(=O)OC (stereo unspecified) | > 100 | – | > 100 | > 100 | > 100 | > 100 | > 100 | > 100 | > 100 | > 100
COc1ccc(C(=O)C2CCC(C(=O)O)C2)cc1 (stereo unspecified) | > 100 | > 100 | > 100 | > 100 | > 100 | > 100 | > 100 | > 100 | > 100 | > 100
Nc1nc(=O)n(C2CCC(CO)O2)cc1F (stereo unspecified) | > 100 | > 100 | > 100 | – | > 100 | > 100 | – | > 100 | > 100 | > 100
